# Assay results as given in PMC4012445, “Spirocyclic Drimanes from the Marine Fungus Stachybotrys sp. Strain MF347” (Marine Drugs, 2014).
# Where a name gives a salt, the structure may show the parent alone. Read-outs that look alike come from different tables or passages of the source.
# Key:
# [1] = tested on: methicillin-resistant Staphylococcus aureus (MRSA) (DSM 18827); assay: Antibiotic activity against methicillin-resistant Staphylococcus aureus; format: cell-based; settings: read-out: IC50, S. aureus MRSA
# Method: (§1) The antimicrobial activities of 1–13 against the bacterium Bacillus subtilis (DSM 347) and the human pathogenic yeast Candida albicans (DSM 1386) were determined according to Ohlendorf et al., 2012 [26].The bioassays using the clinically relevant bacterial strains Staphylococcus epidermidis (DSM 20044), the methicillin-resistant Staphylococcus aureus (MRSA) (DSM 18827), and Klebsiella pneumoniae DSM 30104 were performed as described by Silber et al., 2013 [27]. S. aureus and K. pneumoniae were investigated in the same manner as S. epidermidis. […] The concentration of the compounds used in the initial bioassays was 100 µM (antibiotic tests), 50 µM (cytotoxic tests), and 10 µM (enzymatic tests), respectively. […] Positive controls were carried out with chloramphenicol (bacteria), nystatin (yeast), clotrimazole (fungi), tamoxifen citrate (cell lines), rolipram (PDE-4B2), huperzine (AchE), and TDZD-8 (GSK-3β).
# [2] = Cytotoxic activity against NIH-3T3; format: cell-based
# Method: The concentration of the compounds used in the initial bioassays was 100 µM (antibiotic tests), 50 µM (cytotoxic tests), and 10 µM (enzymatic tests), respectively. […] Positive controls were carried out with chloramphenicol (bacteria), nystatin (yeast), clotrimazole (fungi), tamoxifen citrate (cell lines), rolipram (PDE-4B2), huperzine (AchE), and TDZD-8 (GSK-3β).
# [3] = tested on: Staphylococcus epidermidis (DSM 20044); assay: Antibiotic activity against Staphylococcus epidermidis; format: cell-based; settings: DSM20044, growth inhibition, 0.1–50 µM analyzed twice in duplicates, read-out: IC50, antibiotic activity, S. epidermidis
# Method: as §1
# [4] = tested on: Bacillus subtilis (DSM 347); assay: Antibiotic activity against Bacillus subtilis; format: cell-based; settings: DSM347, growth inhibition, 0.1–50 µM analyzed twice in duplicates, read-out: IC50, antibiotic activity, B. subtilis
# Method: as §1
# [5] = growth inhibition, 0.1–50 µM analyzed twice in duplicates
# [6] = NIH-3T3 fibroblast cells, mouse fibroblasts cell line, 0.1–50 µM analyzed twice in duplicates, read-out: IC50, cytotoxic activity, NIH-3T3
# [7] = human, HepG2 hepatocellular carcinoma cells
SMILES,"IC50 [1, 5] [µM]","IC50 [2, 6] [µM]",IC50 [3] [µM],IC50 [4] [µM],IC50 (in vitro; [7]) [µM],IC50 [1] [µM],"IC50 ([2]; mouse fibroblasts cell line, 0.1–50 µM analyzed twice in duplicates, read-out: IC50, cytotoxic activity, NIH-3T3) [µM]",IC50 (in vitro) [µM],IC50 ([2]; mouse) [µM],IC50 (in vitro; human) [µM]
"CC1CCC2C(C)(C)C(O)CCC2(C)C12Cc1c(O)cc3c(c1O2)CN(C1OCc2cc(O)c4c(c21)OC1(C4)C(C)CCC2C(C)(C)C(O)CCC21C)C3=O (stereo not shown) [Compound 2, stachyin B]",1.75,13,1.02,1.42,14.3,–,–,–,–,–
"O=C(N[C@H](CO)[C@H](O)c1ccc([N+](=O)[O-])cc1)C(Cl)Cl [Chloramphenicol, chloramphenicol, reference compound]",–,–,1.81,1.45,–,2.46,–,–,–,–
"CC(C)=CCC/C(C)=C/CC/C(C)=C/Cc1c(O)cc(C)c(C=O)c1O [Compound 13, ilicicolin B]",0.74,30,3.18,1.06,> 50,–,–,–,–,–
"C[C@H]1CC[C@@H]2C(C)(C)[C@@H](O)CC[C@@]2(C)[C@]12Cc1c(O)cc3c(c1O2)CN(CCCCC(C(=O)O)N1Cc2c(cc(O)c4c2O[C@@]2(C4)[C@@H](C)CC[C@@H]4C(C)(C)[C@@H](O)CC[C@]42C)C1=O)C3=O (stereo partly shown) [Compound 12, stachybocin A]",–,–,2.84,2.03,–,3.71,> 50,> 50,–,–
"C[C@H]1CC[C@@H]2C(C)(C)[C@@H](O)[C@H](O)C[C@@]2(C)[C@]12Cc1c(O)cc3c(c1O2)CN(CCCCC(C(=O)O)N1Cc2c(cc(O)c4c2O[C@@]2(C4)[C@@H](C)CC[C@@H]4C(C)(C)[C@@H](O)[C@@H](O)C[C@]42C)C1=O)C3=O (stereo partly shown) [Compound 11, stachybocin B]",3.94,> 50,4.44,1.77,> 50,–,–,–,–,–
"CC/C(=C(\c1ccccc1)c1ccc(OCCN(C)C)cc1)c1ccccc1 [tamoxifen citrate, reference compound]",–,–,–,–,–,–,–,–,16.4,17.9
